{"source": "patent US8846111B2", "about": "“Compositions and methods for establishing and/or maintaining pregnancy” (Alltech, Inc., priority 2007, dated 2014)", "system": "gene encoding relaxin", "experiment": "AFFYMETRIX chicken genome array, oviduct RNA of hens fed selenium: relaxin", "type": "in vivo", "settings": "0.3 ppm selenium in diet, over forty weeks, relative to selenium deficient animals", "from_the_text": "In an effort to examine possible benefits of administration of selenium on female reproductive performance, hens were randomly selected from a broiler-breeder flock housed at Coldstream poultry facility, University of Kentucky. The hens were maintained on a selenium-deficient diet from 6 weeks of age until 22 weeks of age and were then placed on the following dietary treatments for over forty weeks until the time of sampling: 1) Control, selenium-deficient, Torula yeast-based diet (0.02 ppm selenium); 2) The control diet supplemented with 0.3 ppm selenium from sodium selenite; and 3) The control diet supplemented with 0.3 ppm selenium from SEL-PLEX. Hens were taken from each of the three experimental groups, their oviducts removed, flash-frozen and stored at −80° C. prior to RNA isolation.\nLabeled RNA preparations from oviduct were hybridized with AFFYMETRIX chicken genome arrays containing 38,000 probe sets using standard methodology."}
{"smiles": "O=[Se](O)O", "note": "[sodium selenite]", "values": [{"measurement": "relaxin gene expression, upregulation", "result": "no significant effect"}]}
